Results taken from PubChem BioAssay (NCI).
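Protocol summary: plate cells (96-well), add compound at 5 concentrations, incubate 48 h, interpolate endpoints linearly. GI50 marks 50% less growth. At the TGI there is no net growth.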

Tests used:
Assay in all cases: inhibition of tumour cell growth, NCI panel, 48 h
[1] = tested on: HCT-15 colon
[2] = tested on: IGROV1 ovarian
[3] = tested on: K-562 leukemia
[4] = tested on: LOX IMVI melanoma
[5] = tested on: MDA-MB-231 breast
[6] = tested on: OVCAR-5 ovarian
[7] = tested on: SK-MEL-28 melanoma
[8] = tested on: SNB-19 CNS
[9] = tested on: SW-620 colon
[10] = tested on: SK-MEL-2 melanoma

Row | Compound | TGI [1] | TGI [2] | TGI [3] | TGI [4] | TGI [5] | TGI [6] | TGI [7] | TGI [8] | TGI [9] | TGI [10] | GI50 [1] | GI50 [2] | GI50 [3] | GI50 [4] | GI50 [6] | GI50 [10] | GI50 [7] | GI50 [8] | GI50 [9]
1 | O=NN1CCCS1(=O)=O | > 100 µM | > 100 µM | > 100 µM | > 100 µM | > 100 µM | > 100 µM | > 100 µM | > 100 µM | > 100 µM | – | – | – | – | – | – | – | – | – | –
2 | Cc1ccc(/C=C2/NC(=S)SC2=O)cc1 | 85.6 µM | > 100 µM | – | > 100 µM | 83.4 µM | > 100 µM | > 100 µM | > 100 µM | > 100 µM | > 100 µM | – | – | – | – | – | – | – | – | –
3 | CCOC(=O)Cc1csc(N=Nc2c(O)[nH]c3ccccc23)n1 | > 100 µM | > 100 µM | > 100 µM | > 100 µM | > 100 µM | > 100 µM | – | > 100 µM | > 100 µM | > 100 µM | – | – | – | – | – | – | – | – | –
4 | COc1cc(C)cc2c(-c3c(O)cc(O)c4c3C[C@H](C)N[C@H]4C)cc(-c3cc(-c4c(O)cc(O)c5c4C[C@H](C)N[C@H]5C)c4cc(C)cc(OC)c4c3O)c(O)c12 | > 100 µM | > 100 µM | > 100 µM | – | > 100 µM | > 100 µM | > 100 µM | > 100 µM | > 100 µM | > 100 µM | – | – | – | – | – | – | – | – | –
5 | COC(=O)/C=C1\C(=O)C=C2[C@@H]3C[C@H]4C[C@H](CC[C@@]4(C)N21)C3(C)NC(C)=O (stereo not given in full) | > 52.7 µM | 40.7 µM | > 100 µM | > 100 µM | 56.2 µM | 35.7 µM | 11.2 µM | > 56.7 µM | 24.7 µM | 38.9 µM | – | – | – | – | – | – | – | – | –
6 | COC1(OC)C=CC(=O)C=C1 | 16.9 µM | 4.77 µM | > 100 µM | 2.91 µM | 7.2 µM | > 41.6 µM | 4.16 µM | 30.2 µM | 3.12 µM | 21.5 µM | – | – | – | – | – | – | – | – | –
7 | COC(=O)[C@](C)(Cc1ccccc1)NC(=O)[C@@H](C)N1[C@@H](c2ccccc2)COC1(C)C | > 100 µM | > 100 µM | > 100 µM | > 100 µM | > 100 µM | > 100 µM | > 100 µM | > 100 µM | > 100 µM | > 100 µM | – | – | – | – | – | – | – | – | –
8 | Cc1nc2cccc(F)c2c(=O)n1-c1nnc(C(F)(F)F)s1 | > 10 µM | > 10 µM | > 10 µM | > 10 µM | > 10 µM | > 10 µM | > 10 µM | > 10 µM | > 10 µM | > 10 µM | – | – | – | – | – | – | – | – | –
9 | NC1c2c(Cl)sc(Cl)c2C(=O)C1O (stereo not given) | 30.1 µM | > 100 µM | > 100 µM | 47.3 µM | > 100 µM | > 100 µM | – | > 100 µM | 50.5 µM | > 100 µM | – | – | – | – | – | – | – | – | –
10 | O=[N+]([O-])c1ccc2nc(/C=C(\O)c3ccc(Cl)cc3)c(/C=C(\O)c3ccc(Cl)cc3)nc2c1 | > 100 µM | > 100 µM | > 100 µM | – | > 100 µM | > 100 µM | – | > 100 µM | – | > 100 µM | – | – | – | – | – | – | – | – | –
11 | C=CCc1ccccc1C1CC2(C(=O)OC)OC1C(C(=O)OC)=C2C(=O)OC (stereo not given) | > 10 µM | > 10 µM | > 10 µM | > 10 µM | > 10 µM | > 10 µM | > 10 µM | > 10 µM | > 10 µM | > 10 µM | – | – | – | – | – | – | – | – | –
12 | COC(=O)c1cc(C)ccc1/C=C1\Cc2c(C)cc(C)cc2C1=O | > 100 µM | > 100 µM | > 100 µM | > 100 µM | > 58.4 µM | > 100 µM | > 100 µM | 52.8 µM | > 100 µM | 63.7 µM | – | – | – | – | – | – | – | – | –
13 | Nn1c(Sc2nc3ccccc3c(=O)n2N)nc2ccccc2c1=O | 16.5 µM | 23.3 µM | > 100 µM | 4.25 µM | 24.4 µM | 40.6 µM | 13.1 µM | 24.6 µM | 7.13 µM | 14.3 µM | – | – | – | – | – | – | – | – | –
14 | CCN(CC)C1Oc2cc3c(cc2C(c2cc(OC)c(OC)c(OC)c2)C1C)OCO3 (stereo not given) | 13.3 µM | > 63.2 µM | 11.1 µM | > 48.8 µM | 65.9 µM | > 47.8 µM | 34.3 µM | > 53 µM | > 63.1 µM | 11.7 µM | – | – | – | – | – | – | – | – | –
15 | C=CC(OC(C)=O)c1ccc(OC(C)=O)cc1 (stereo not given) | 23.5 µM | 29.5 µM | > 100 µM | 9 µM | 9.12 µM | 28.1 µM | 28.6 µM | 28.7 µM | – | 12 µM | – | – | – | – | – | – | – | – | –
16 | COc1cc2oc(=O)cc(C)c2cc1OC | > 100 µM | > 100 µM | > 100 µM | > 100 µM | > 100 µM | > 100 µM | > 100 µM | > 100 µM | > 100 µM | > 100 µM | – | – | – | – | – | – | – | – | –
17 | NC(=S)N/N=C1\CCCC1C(O)(C(F)(F)Cl)C(F)(F)Cl (stereo not given) | > 10 µM | > 10 µM | > 10 µM | > 10 µM | > 10 µM | > 10 µM | > 10 µM | > 10 µM | > 10 µM | > 10 µM | – | – | – | – | – | – | – | – | –
18 | Cc1c(C#N)c(=N)oc2ccccc12 | > 100 µM | > 100 µM | > 100 µM | > 100 µM | > 100 µM | > 100 µM | > 100 µM | > 100 µM | > 100 µM | > 100 µM | – | – | – | – | – | – | – | – | –
19 | CS(=O)(=O)[O-].CS(=O)(=O)[O-].NC1CCCCC1N.[Pt+4] (stereo not given) | > 100 µM | > 100 µM | > 100 µM | > 100 µM | – | > 100 µM | > 100 µM | > 100 µM | > 100 µM | > 100 µM | > 100 µM | > 69.4 µM | 79.1 µM | > 61 µM | > 100 µM | > 100 µM | 71.6 µM | > 100 µM | 13 µM
20 | COc1ccc(OC)c(C[P+](c2ccccc2)(c2ccccc2)c2ccccc2)c1 | > 100 µM | 21.7 µM | 5.91 µM | 13.2 µM | 34.9 µM | > 100 µM | 18.8 µM | > 75 µM | > 100 µM | – | – | – | – | – | – | – | – | – | –
21 | Cc1nc2c(n1-c1ccccc1)C(=O)c1ccccc1C2=O | > 100 µM | – | > 100 µM | – | – | > 100 µM | > 100 µM | > 100 µM | > 100 µM | > 100 µM | – | – | – | – | – | – | – | – | –
22 | CC1CN=C(c2ccc(-c3nc(-c4ccc(C5=NCC(C)N5)cc4)nc(N(C)C)n3)cc2)N1 (stereo not given) | 33.9 µM | 18 µM | 6 µM | 2.93 µM | 3.05 µM | 10.8 µM | 8.12 µM | 6.73 µM | 5.56 µM | 4.05 µM | – | – | – | – | – | – | – | – | –
